The values that follow come from PMC6253839, “Screening of Agelasine D and Analogs for Inhibitory Activity against Pathogenic Protozoa; Identification of Hits for Visceral Leishmaniasis and Chagas Disease” (Molecules, 2009).

Converted amounts (≈) assume the structure as drawn. “Also recorded” adds a separate entry of the source. Read-outs that look alike come from different tables or passages of the source.

The test system of series [1] is P. falciparum GHA-strain (chloroquine-suceptible). The experiment in a line: Antiplasmodial activity, Malstat method. It counts as cell-based, Plasmodium falciparum. The settings on record: for IC50: Plasmodium falciparum, GHA-strain, 72 h, TDR hit criterion <0.2 μg/mL, read-out: P. falciparum IC50.
In series [2] the test system is Leishmania infantum amastigotes (MHOM/ET 67). Put plainly: Antileishmanial activity, amastigotes in primary peritoneal mouse macrophages. Format: cell-based. The settings on record: for IC50: Leishmania infantum, Macrophage, intracellular amastigotes, 120 h, TDR hit criterion <0.5 μg/mL, read-out: L. infantum IC50; for hit for leishmaniasis according to TDR: criterion IC50 <0.5 μg/mL and SI >20. As for the experimental part: Leishmania infantum amastigotes (MHOM/ET 67) were collected from an infected donor hamster and used to infect primary peritoneal mouse macrophages. To determine in vitro antileishmanial activity, 3×10^4 macrophages were seeded in each well of a 96-well plate. After 48 h outgrowth, 5×10^4 amastigotes/well were added and incubated for 2 h at 37 °C. […] Parasite burdens were determined microscopically after Giemsa staining and expressed as a percentage of the blank controls without compound.

The test system of series [3] is T. cruzi Tulahuen CL2 strain (nifurtimox-sensitive). The experiment in a line: Antitrypanosomal activity, T. cruzi on MRC-5 cells, β-galactosidase readout. Format: cell-based, Trypanosoma cruzi. The note with it: for IC50: Trypanosoma cruzi, TULAHUEN
The method, then:
To determine in vitro anti-trypanosomal activity, 4×10^3 MRC-5 cells and 4×10^4 parasites were added to each well of test plate with compound. […] The color reaction was read at 540 nm and absorbance values were expressed as a percentage of the blank controls.

Series [4] in a line: Cytotoxicity assay, resazurin. The note with it: human, MRC-5 SV2 cells (human fetal lung fibroblasts). Format: cell-based. As for the experimental part:
Cell viability was determined after addition of resazurin.
(Alamar Blue is a resazurin reagent that responds to reducing activity.)

In another series the test system is Staphyllococcus aureus. Also noted: method as in PMID 17442577. The settings on record: previous studies; cited from earlier work.
A further series relates to Escherichia coli. On the set-up: method as in PMID 17442577. The note with it: previous studies; cited from earlier work.
In series [5] the test system is Mycobacterium tuberculosis. The note with it: cited from earlier work.
The mark [6] stands for this setting: MRC5, 168 h, read-out: T. cruzi IC50.

As a reminder, the IC50 is the concentration that gives 50% inhibition. Take `CC(C)=CCC/C(C)=C\CC/C(C)=C/C[n+]1cn(C)c2ncnc(N)c21` [Compound 2a]: the results for the half-inhibitory concentration (IC50) in series [1], in series [2] and in series [3] (setting [6]) were 2.9 µg/mL, > 26 µg/mL and 0.43 µg/mL, respectively. Besides, the “hit for Chagas disease according to TDR” value in series [3] is “classified as hits; also recorded: identified as hits”. In addition, the IC50 at 72 h in series [4] is > 26 µg/mL. Besides, the “antibacterial activity against S. aureus, in words” value in the series on Staphyllococcus aureus was “virtually inactive”. Also, the “antibacterial activity against E. coli, in words” value in the series with Escherichia coli is “virtually inactive”. In addition, the “antibacterial activity against M. tuberculosis, in words” value in series [5] (previous studies) is “virtually inactive”.
With `CO/N=c1\[n-]cnc2c1[n+](C/C=C(\C)CC/C=C(\C)CC/C=C(\C)CCC=C(C)C)cn2C` [Compound 1d], the IC50 in series [1] is 0.1 µg/mL (≈ 0.221 µM); in series [2] it was 0.093 µg/mL (≈ 0.206 µM); in series [3] (setting [6]), 0.11 µg/mL (≈ 0.244 µM); in series [3] (MRC5, read-out: T. cruzi IC50), < 1 µg/mL. Besides, the “antimalaria hit according to TDR” value in series [1] (criterion IC50 <0.2 μg/mL with SI >20) is “met this requirement”. In addition, the “hit for leishmaniasis according to TDR” value in series [2] was “meets the definition of a hit; also recorded: identified as hits”. In addition, in series [4], the concentration for half-maximal inhibition (IC50) at 72 h is 2 µg/mL (≈ 4.43 µM). Besides, the “antibacterial activity against M. tuberculosis, in words” value in series [5] (previously shown) is listed as “inhibition of Mycobacterium tuberculosis”.
For `CC(C)=CCC/C(C)=C/CC/C(C)=C/CC/C(C)=C/Cn1cc[n+](C)c1` [Compound 5], the figures for the IC50 in series [1], in series [2] and in series [3] (setting [6]) were 0.97 µg/mL, < 0.11 µg/mL and < 0.11 µg/mL, respectively. For the same compound, the “hit for leishmaniasis according to TDR” value in series [2] is recorded as “classifies as a hit; also recorded: identified as hits”. The “hit for Chagas disease according to TDR” value in series [3] is “classified as hits; also recorded: identified as hits”. For the same compound, the IC50 at 72 h in series [4] is 7.6 µg/mL. The “antibacterial activity against S. aureus, in words” value in the series on Staphyllococcus aureus is “reasonably active”. Moreover, the “antibacterial activity against E. coli, in words” value in the series with Escherichia coli is “not against”. In addition, the “antibacterial activity against M. tuberculosis, in words” value in series [5] (previous studies) was “not against”.
